From US20250099488A1, “ANTI-PARASITE COMPOUNDS” (AUSTRALIAN NATIONAL UNIVERSITY, priority 2022, published 2025)
Read-outs that look alike come from different tables or passages of the source.

What was measured:
asexual P. falciparum = assay: Plasmodium growth inhibition assay (SYBR Safe), asexual stages; format: cell-based, Plasmodium falciparum; conditions: for Inhibitory effect on proliferation of asexual stages: FIG. 11D, cholesterol in ethanol, DMSO or ethyl acetate, DHEA
Procedure: Compounds or solvent controls (DMSO, ethanol, or ethyl acetate) were serially diluted 2-fold across flat-bottom 96-well plates. Complete culture media without compound was used as a negative control. Chloroquine (100-200 nM) {Sigma C6628} was used as a positive control to determine background fluorescence. The parasitaemia of a culture containing predominantly ring stage parasites was counted by Giemsa smear. The parasitaemia was adjusted to 1% by addition of fresh uRBCs, and added to the plate at a final haematocrit of 1%, with 200 μL per well. The plates were incubated at 37° C. under humid microaerophilic conditions. […] Fluorescence was read at 490 nm excitation/520 nm emission on a FLUOstar Optima fluorescence plate reader {BMG Labtech}.
Growth inhibition data were normalised by subtracting background fluorescence from a no-growth control (high drug concentration or time=0 measurement as specified), and expressed as a percentage of the growth in the negative control (media alone or solvent control) either at the indicated timepoint, or to the highest measurement reached during the assay.
P. falciparum asexual parasite assays begun with ring-stage parasites at 1% parasitaemia and 1% haematocrit. 200 nM chloroquine (Sigma C6628) was used as a no-growth control. […] 17]; 8 (2):e54974).
(§1) Growth inhibition data were normalised by subtracting background fluorescence, luminescence, absorbance, or percentage of cells from a no-growth or no-viability control (high drug concentration, no-parasite control, or time=0 measurement as specified), and expressed as a percentage of the growth or cell percentage in the negative control (culture media alone or solvent control) at the indicated timepoint (or to the highest measurement reached during the assay for FIG. 15B).

[1] = system: P. falciparum CAM3.II (mutated Kelch-13, resistant); assay: Ring stage survival assay, resistant strain; format: cell-based, Plasmodium falciparum; conditions: 700 nM for six hours, then 66 hours without drug; for Parasite survival (DNA replication): FIG. 17B
From the text: (§2) The inventors tested these compounds in a ring stage survival assay, which allows the detection of resistant parasites against this […] drug and is the standard method for investigating resistance to artemisinin and its derivatives (Witkowski B, Menard D, Amaratunga C. Fairhurst R. Ring-stage Survival Assays (RSA) to evaluate the in-vitro and ex-vivo susceptibility of Plasmodium falciparum to artemisinins Procedure. Inst Pasteur du Cambodge—Natl Institutes Heal [Internet]. 2013 Sep. 11 [cited 2022 Jun. 19]; Procedure; available from: https://www.wwarn.org/sites/default/files/INV10-Standard-Operating-Procedure-Ring-Stage-Survival-Assays.pdf). This assay involves a short treatment window against newly-invaded ring stage parasites, followed by removal of drug pressure to mimic the clearance of the drug from plasma. We utilised two parasite strains: an isolate from Cambodia (CAM3.II) with a mutated Kelch-13 conferring resistance, and a genetically modified revertant of this strain (CAM3.IIREV) conferring drug susceptibility (Straimer J, Gnädig N F, Witkowski B, Amaratunga C, Duru V, Ramadani A P, et al. K13-propeller mutations confer artemisinin resistance in Plasmodium falciparum clinical isolates. Science (80-) [Internet]. 2015 Jan. 23 [cited 2022 Jun. 19]; 347(6220):428-31; available from: https://www.science.org/doi/10.1126/science.1260867).
(§3) Following tight synchronisation, CAM3.II and CAM3.IIREV ring stage parasites (0-3 hours post invasion) at 1% parasitaemia and 2% haematocrit were incubated with 700 nM of compounds or solvent-only controls for exactly six hours, before removing the drug, thoroughly washing in RPMI, and returning to culture conditions for a further 66 hours. Some cells were treated with 700 nM artesunate for 72 hours as a no-growth control. DNA replication (indicating growth) was measured at the specified time using SYBR Safe DNA Gel Stain. Microscope slide smears of each condition were stained with 10% v/v Giemsa and examined under a light microscope (1 000× magnification); with ‘viable’ (morphologically normal) and ‘non-viable’ (morphologically aberrant; vacuolated or pyknotic) parasites distinguished according to standard protocol (Witkowski B, Menard D, Amaratunga C, Fairhurst R. Ring-stage Survival Assays (RSA) to evaluate the in-vitro and ex-vivo susceptibility of Plasmodium falciparum to artemisinins Procedure. Inst Pasteur du Cambodge—Natl Institutes Heal [Internet]. 2013 Sep. 11 [cited 2022 Jun. 19]; Procedure. Available from: https://www.wwam.org/sites/default/files/INV10-Standard-Operating-Procedure-Ring-Stage-Survival-Assays.pdf). Images were captured using a Leica ICC50 camera, with a resolution of 76 nm per pixel.

[2] = system: P. falciparum CAM3.IIREV (susceptible); assay: Ring stage survival assay, susceptible revertant strain; format: cell-based, Plasmodium falciparum; conditions: 700 nM for six hours, then 66 hours without drug
From the text: as §2, §3

[3] = system: human hepatoma cells (Huh7); assay: Huh7 hepatoma viability assay (CellTiter-Blue); format: cell-based; conditions: 48 hours; effect on cellular integrity / modest cytotoxicity
Procedure: Huh7 hepatoma viability assays were conducted in the same manner as the P. berghei assays, with metabolic capacity (indicating viability) measured by incubation with CellTiter-Blue® (Promega) for 3 hours.

[4] = HEK293 cell viability assay (MTT); format: cell-based, human; conditions: human, 96 hours, FIG. 16H / FIG. 18C, read-out: IC50, HEK293 cytotoxicity
Procedure: HEK293 cell viability assays began with 5000 cells per well. 10 μg/mL cycloheximide was used as a no-growth control. Metabolic capacity (indicating viability) was measured by incubation with 0.45 mg/mL methylthiazolyldiphenyl-tetrazolium bromide (MTT; Sigma M2128) for two hours followed by crystal solubilisation in SDS.

[5] = system: P. falciparum gametocytes (stage III-IV); assay: Gametocyte viability assay (MitoTracker, flow cytometry); format: cell-based, Plasmodium falciparum; conditions: Plasmodium falciparum, read-out: IC50, gametocyte viability
From the text: Gametocyte assays begun eight days post-invasion (Stage III-IV).
as §1

[6] = system: human foreskin fibroblasts (HFF); assay: HFF growth inhibition assay (SYBR Safe); format: cell-based; conditions: 72 hours, FIG. 16G
Procedure: Cells were incubated with a serial dilution of each compound, or media/DMSO alone. The protein synthesis inhibitor cycloheximide (10 μg/mL) was used as a positive control to determine background fluorescence. Approximately 5000 cells were seeded in each well. […] Plates were transferred to a −18° C. freezer. […] Fluorescence was read at 490 nm excitation/520 nm emission on a FLUOstar Optima fluorescence plate reader.
HFF cell growth inhibition assays began with 5000 cells per well. 10 μg/mL cycloheximide was used as a no-growth control.

[7] = system: Toxoplasma gondii tachyzoites; assay: Toxoplasma growth inhibition assay (tdTomato fluorescence); format: cell-based; conditions: Toxoplasma gondii, 72 h, read-out: IC5 against T. gondii
Procedure: Fluorescent Toxoplasma gondii parasites were inoculated into an optical bottom 96-well plate containing confluent human foreskin fibroblast (HFF) host cells at a density of 2000 parasites/well, with a serial dilution of each compound, or media/DMSO alone. Plates were measured daily with a FluoStar Optima fluorescence plate reader at 540 nm excitation/590 nm emission for seven days, and the background fluorescence from the time 0 reading was subtracted from all other measurements.
Fluorescence was measured daily with a FluoStar Optima fluorescence plate reader for one week, and the background fluorescence from the time 0 reading was subtracted from all other measurements.
as §1

P. berghei liver stages = assay: P. berghei liver stage growth assay (luciferase) in Huh7 cells; format: cell-based, Plasmodium berghei; conditions: Plasmodium berghei, Huh-7; 48 hours of treatment from sporozoite inoculation, Huh7 cells, FIG. 16A
Procedure: (§4) Huh7 cells were seeded at a density of 10 000 cells per well, or 20 000 per collagen-coated coverslip. […] Uninfected wells served as a control for background luminescence. […] Data are presented as a percentage of the size or parasite number of the solvent control to normalize for differences between experiments. For cell images presented in the figure, images were collected under optimal exposure settings to ensure features were visible. Individual cells were cropped from larger images with Fiji ImageJ, and the brightness was adjusted while ensuring that no fluorescence was removed. No other manipulations were performed.
as §1

[8] = system: P. berghei liver stage schizonts; assay: P. berghei liver stage parasite size and number (fluorescence microscopy) in Huh7 cells; format: cell-based, Plasmodium berghei; conditions: 3 μM, 48 hours post-infection, vs DMSO
Procedure: as §4

[9] = Plasmodium falciparum, 24 hours, starting with ring-stage parasites, FIG. 14B, read-out: IC50
[10] = Plasmodium falciparum, 72 hours, FIG. 18B, read-out: IC50

Cc1ncc([N+](=O)[O-])n1CCOC(=O)CCC(=O)O[C@H]1CC[C@H]2[C@@H]3CC=C4C[C@@H](O)CC[C@]4(C)[C@H]3CC[C@]12C [BC62D, 3β-Hydroxyandrost-5-en-17β-yl succinate-metronidazole diester]
IC50 (asexual P. falciparum; Plasmodium falciparum, Example 4, FIG. 20B, read-out: IC50): 24 µM

CC(C)CCC[C@@H](C)[C@H]1CC[C@H]2[C@@H]3CC=C4C[C@@H](OC(=O)CCC(=O)OC(C)C)CC[C@]4(C)[C@H]3CC[C@]12C [C-3-link, 3β-Succinate-(propan-2-yldiester)-cholest-5-ene]
No inhibition of parasite growth up to (concentration) (asexual P. falciparum; 24 hours): > 200 µM | IC50 (asexual P. falciparum; [9]): > 200 µM

COc1cc(NC(C)CCCNC(=O)CCC(=O)O[C@H]2CC[C@@]3(C)C(=CC[C@H]4[C@@H]5CC[C@H]([C@H](C)CCCC(C)C)[C@@]5(C)CC[C@@H]43)C2)c2ncccc2c1 (stereo partly drawn) [C-3-prim, Cholester-3-yl succinate-primaquine amide]
No inhibition of parasite growth up to (concentration) (asexual P. falciparum; 24 hours): > 100 µM | IC50 (asexual P. falciparum; [9]): > 200 µM

C[C@H]1[C@H](OC(=O)CCC(=O)O[C@H]2CC[C@H]3[C@@H]4CC=C5C[C@@H](O)CC[C@]5(C)[C@H]4CC[C@]23C)O[C@@H]2O[C@]3(C)CC[C@H]4[C@H](C)CC[C@@H]1[C@@]24OO3 [C-17-art, 3β-Hydroxyandrost-5-en-17β-yl succinate-artesunate ester]
Morphology in Giemsa-stained smears [1]: only aberrant, non-viable parasites were visible | Parasite survival (DNA replication) [1]: kills all cells | Morphology in Giemsa-stained smears [2]: only morphologically aberrant parasites were present

CC(C)OC(=O)CCC(=O)O[C@H]1CC[C@H]2[C@@H]3CC=C4C[C@@H](O)CC[C@]4(C)[C@H]3CC[C@]12C [C-17-link, 3β-Hydroxyandrost-5-en-17β-yl succinate-propan-2-yl diester]
Concentration at which cytotoxic effect was detected [3]: > 30 µM | IC50 at 96 h [4]: 43.6 µM | Parasite survival (DNA replication) [1]: did not significantly impact on the growth of either strain | Parasite survival / growth inhibition (DNA replication) ([2]; FIG. 17B): did not significantly impact on the growth of either strain | IC50 ([5]; 48 h): > 100 µM | IC50, fibroblast growth [6]: no notable inhibition was observed

C[C@]12CC[C@H](O)CC1=CC[C@@H]1[C@@H]2CC[C@]2(C)C(=O)CC[C@@H]12 [DHEA, 3β-Hydroxyandrost-5-en-17-one, reference compound]
Inhibitory effect on proliferation of asexual stages (asexual P. falciparum): influences proliferation, although at relatively high concentrations | IC50 (asexual P. falciparum; [10]): 150 µM

Cc1ncc([N+](=O)[O-])n1CCO [Metronidazole, metronidazole, reference compound]
IC50 (asexual P. falciparum; Example 4, FIG. 20B): almost no effect in the range tested

CC1CCC2C(C)C(OC(=O)CCC(=O)OC3CCC4C5CC=C6CC(O)CCC6(C)C5CCC34C)OC3OC4(C)CCC1C32OO4 (stereo not drawn) [PAYb076a]
Effect of steroid-artesunate conjugates on proliferation (asexual P. falciparum; 72 hrs, FIG. 13B/13C): better activity than coupling via C3

CC(C)OC(=O)CCC(=O)O[C@@H]1O[C@@H]2O[C@]3(C)CC[C@H]4[C@H](C)CC[C@@H]([C@H]1C)[C@@]24OO3 [art-link, Propan-2-yl artesunate ester]
Morphology in Giemsa-stained smears [1]: a combination of morphologically normal parasites and morphologically aberrant pyknotic or vacuolated forms | Parasite survival (DNA replication) [1]: showed a trend to improved efficacy over artesunate | Morphology in Giemsa-stained smears [2]: only morphologically aberrant parasites were present

CC(C)CCC[C@@H](C)[C@H]1CC[C@H]2[C@@H]3CC=C4C[C@@H](O)CC[C@]4(C)[C@H]3CC[C@]12C [cholesterol, Cholesterol, reference compound]
Inhibitory effect on proliferation of asexual stages (asexual P. falciparum): No inhibitory effect could be detected in the concentration range being used | IC50 (asexual P. falciparum; [10]): > 400 µM

CC(C)(C)OOC(C)(C)C [di-ter-butyl peroxide, di-tert-butyl peroxide, reference compound]
IC50 (asexual P. falciparum; 72 hours, FIG. 18B, read-out: IC50): > 25 µM

COc1cc(NC(C)CCCNC(=O)CCC(=O)OC(C)C)c2ncccc2c1 (stereo not drawn) [prim-link, Propan-2-yl succinate-primaquine amide]
IC50 at 96 h ([4]; HEK293 cells): 13.3 µM | IC50 ([5]; 48 hours of incubation, stage III-IV, FIG. 14C): > 100 µM

COc1cc(NC(C)CCCN)c2ncccc2c1 (stereo not drawn) [primaquine, reference compound]
IC50 [7]: 9.7 µM | Hill slope of inhibitory curve (asexual P. falciparum; 24 hours): −1.65 | Hill slope of inhibitory curve (asexual P. falciparum; 72 hours): −1.48 | IC10 (asexual P. falciparum; FIG. 8B, Example 2): 12 µM | IC90 (asexual P. falciparum; Plasmodium falciparum, 24 h): 41 µM | IC50 (asexual P. falciparum; Plasmodium falciparum, 72 h): 3.2 µM | IC50 at 96 h [4]: 10.6 µM | IC50 ([5]; 48 h): 63.5 µM | IC50 (P. berghei liver stages): 2900 nM | Smaller parasite size (reduction) [8]: 61%
